Measured values taken from publication PMC12037410, “Pharmacological targeting of BMAL1 modulates circadian and immune pathways” (Nature Chemical Biology, 2025).

These molecules were tested against T1, BMAL1 (Homo sapiens, UniProt O00327) (assay: not given). Conditions: dTmB; binder.
Set-up: PASB domain (residues 338–449); Protein thermal shift (PTS) fragment screen on recombinant human BMAL1(PASB), shift of melting temperature

T1 sequence (O00327 338-449): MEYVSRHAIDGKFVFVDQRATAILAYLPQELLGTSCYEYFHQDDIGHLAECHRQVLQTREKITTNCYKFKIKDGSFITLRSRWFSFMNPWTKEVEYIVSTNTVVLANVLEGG

Row | SMILES | Bmal1(PASB) dTmB [°C]
1 | CN1CCN(c2ccc(N)cc2)CC1 [Prestw-Frag-3670, Compound 20] | 0.65
2 | CCN1CCCC1CN (stereo not drawn) [Prestw-Frag-3671, Compound 99] | -0.56
3 | Fc1ccc(CN2CCNCC2)cc1 [Prestw-Frag-3673, Compound 274] | -1.00
4 | O=C(c1ccccc1)N1CCNCC1 [Prestw-Frag-3677, Compound 184] | -0.65
5 | COc1ccc2nc[nH]c2c1 [Prestw-Frag-3678, Compound 41] | -0.91
6 | O=C1CC2(CCCC2)CC(=O)N1 [Prestw-Frag-3680, Compound 36] | -2.38
7 | Nc1ccc2c(c1)CCCC2 [Prestw-Frag-3682, Compound 71] | 0.33
8 | Nc1ncns1 [Prestw-Frag-3683, Compound 69] | -0.32
9 | CC(=O)c1ccc2c(c1)OCO2 [Prestw-Frag-3686, Compound 57] | -1.06
10 | NCc1ncc[nH]1 [Prestw-Frag-3689, Compound 15] | -1.37
11 | CNC(=O)c1c(-c2ccccc2)noc1C [Prestw-Frag-3690, Compound 210] | -0.42
12 | CN1CCN(CCCC(=O)c2ccc(F)cc2)CC1 [Prestw-Frag-3692, Compound 279] | -0.28
13 | Oc1cccc2[nH]ccc12 [Prestw-Frag-3696, Compound 12] | -0.70
14 | O=C1COc2cc(O)ccc21 [Prestw-Frag-3703, Compound 77] | 0.62
15 | c1ccc(C2COCCN2)cc1 (stereo not drawn) [Prestw-Frag-3705, Compound 182] | -0.30
16 | CC(C(=O)O)c1cccc(F)c1 (stereo not drawn) [Prestw-Frag-3706, Compound 79] | 0.26
17 | NC1CCc2[nH]c3ccccc3c2C1 (stereo not drawn) [Prestw-Frag-3709, Compound 361] | 1.14
18 | O=C(O)C(c1ccccc1)c1ccccc1 [Prestw-Frag-3711, Compound 127] | -0.11
19 | c1ccc(C2CCCNCC2)cc1 (stereo not drawn) [Prestw-Frag-3712, Compound 230] | -0.85
20 | Oc1ccc2c(c1)CCC2 [Prestw-Frag-3713, Compound 89] | -0.82
21 | NC1CCC(=O)NC1=O (stereo not drawn) [Prestw-Frag-3716, Compound 102] | -0.05
22 | CC(O)(C(=O)O)c1ccccc1 (stereo not drawn) [Prestw-Frag-3717, Compound 103] | -0.01
23 | O=C1CNCN1 [Prestw-Frag-3718, Compound 116] | -0.07
24 | c1cncc(CN2CCNCC2)c1 [Prestw-Frag-3722, Compound 288] | -0.77
25 | NC(=O)N1CCNCC1 [Prestw-Frag-3723, Compound 152] | 0.03
26 | Cc1n[nH]c(C)c1N [Prestw-Frag-3724, Compound 23] | -1.19

Row | SMILES | Bmal1(PASB) dTmB [°C]
27 | FC(F)(F)c1ccn[nH]1 [Prestw-Frag-3726, Compound 192] | 0.30
28 | OCC1CCNCC1 [Prestw-Frag-3727, Compound 325] | 0.08
29 | OCC1CCCNC1 (stereo not drawn) [Prestw-Frag-3728, Compound 390] | -0.26
30 | c1cc(N2CCNCC2)ncn1 [Prestw-Frag-3729, Compound 289] | -0.01
31 | N#CCC(=O)N1CCCCC1 [Prestw-Frag-3730, Compound 302] | 0.12
32 | CCN(CC)C(=O)CC#N [Prestw-Frag-3731, Compound 282] | -0.04
33 | c1ccc2c(c1)NCCO2 [Prestw-Frag-3732, Compound 54] | 0.57
34 | CC(C)(CN)c1ccccc1 [Prestw-Frag-3733, Compound 285] | -0.30
35 | O=c1[nH]cncc1-c1ccccc1 [Prestw-Frag-3734, Compound 254] | -0.26
36 | Oc1ccccc1N1CCNCC1 [Prestw-Frag-3738, Compound 34] | 0.10
37 | COc1ccc2c(c1)CCC(C(=O)O)C2 (stereo not drawn) [Prestw-Frag-3739, Compound 163] | 0.52
38 | Cn1c(N)nc2ccccc21 [Prestw-Frag-3740, Compound 377] | -0.10
39 | OCc1ccc2c(c1)OCO2 [Prestw-Frag-3741, Compound 372] | -0.20
40 | Cc1nc(-c2ccccc2)cs1 [Prestw-Frag-3743, Compound 378] | -0.52
41 | c1ccc(-n2ccnc2)cc1 [Prestw-Frag-3744, Compound 409] | -0.78
42 | Cc1nc(-c2ccccc2F)cs1 [Prestw-Frag-3745, Compound 298] | -0.20
43 | NCCc1ccc(F)cc1F [Prestw-Frag-3746, Compound 138] | -0.34
44 | NCc1cscn1 [Prestw-Frag-3747, Compound 29] | -1.05
45 | NCCOCc1ccccc1 [Prestw-Frag-3749, Compound 335] | 0.05
46 | c1ccc2c(c1)CCNCC2 [Prestw-Frag-3750, Compound 343] | -0.06
47 | NCC1(c2ccccc2)CC1 [Prestw-Frag-3751, Compound 367] | -0.24
48 | Cc1[nH]cnc1CO [Prestw-Frag-3752, Compound 153] | 0.29
49 | c1ncc(C2CCNCC2)[nH]1 [Prestw-Frag-3753, Compound 303] | -0.23
50 | CC(=O)C1CCNCC1 [Prestw-Frag-3756, Compound 333] | -0.19
51 | CC1CCC(=O)O1 (stereo not drawn) [Prestw-Frag-3757, Compound 251] | -0.06
52 | c1ccc(-n2cccn2)cc1 [Prestw-Frag-3759, Compound 239] | -0.29

Same assay, conditions: dTmB; binder; Bmal1(PASB) dTmB

Row | SMILES | Bmal1(PASB) dTmB [°C]
53 | CC1=NN(c2ccccc2)C(=O)C1 [Prestw-Frag-3742, Compound 81] | 1.77

Each molecule was assayed against T1, BMAL1 (assay: ITC; also crystal structure ([…] Å), SPR (Kd […]), PTS (ΔTm […] °C), CETSA (EC50 […])). Conditions: not given.
Format: binding
Set-up: PASB domain (338–449 amino acids)

Row | SMILES | Kd [nM]
54 | CCc1ccc(OCC(F)CO)c2occc12 (racemic) [compound 4, CCM] | 1990 ± 380
